The text below walks through data of patent US10426755B2, “Methods for inhibiting cancer cells” (Chang Gung Memorial Hospital, Chiayi, priority 2015, dated 2019).

Entries after “also recorded” stand apart in the source; their conditions may differ.

What all share (assay type): cell-based
Test [1] relates to prostate cancer cells (metastatic DU145, PC3, 22RV1). Kind of test: Cell invasion assay (transwell, Matrigel), prostate cancer cells. As to conditions: 5 or 10 μM DT, 3 days, vs control vehicle; FIG. 12 (a), (c), (e). As for the experimental part:
(§1) An in vitro evaluation of the effect of DT on lung cancer cells (A549 and chemotherapy resistant/metastatic H460), prostate cancer cells (metastatic DU145) and colorectal cancer cells (chemotherapy resistant HCT116) invasion and migration was performed, using cell invasion assay and cell migration assay.
(§2) Cell Invasion Assay: cells of interest were treated with a control vehicle, 5 or 10 μM of DT and incubated for 3 days. 1×10^5 cells were placed into the upper chamber of transwell plates (8 μm) with membranes pre-coated with 20% Matrigel and the bottom chamber contained 600 μL media supplemented with 10% fetal bovine serum (FBS). The cells migrated to the bottom of the chamber were fixed, stained and counted.

For test [2], the system named is lung cancer cells (A549 and chemotherapy-resistant/metastatic H460). The experiment in a line: Annexin V/PI flow cytometry apoptosis/necrosis, lung cancer cells. As to conditions: 10 or 20 μM DT, 24-48 hours, vs PBS and DMSO vehicle (CT); time dependent; FIG. 7. As for the experimental part:
(§3) The effect of DT on metastatic prostate cancer cells (hormone therapy-resistant PC3, DU145 and LNCaP); lung cancer cells (A549 and chemotherapy-resistant/metastatic H460); and breast cancer cells (MCF-7, tamoxifen-resistant MCF7 and MDA MB-231) was assessed.
(§4) 1×10^6 Cancer cells were seeded in a 100-mm plate and cultured overnight. The cancer cells were treated with phosphate buffered saline (PBS), a Dimethyl sulfoxide (DMSO) vehicle (CT), 10 or 20 μM of DT for 24-48 hours, then collected and washed with cold PBS. The supernatant was removed by centrifugation and resuspended in FITC Annexin V binding buffer and Propidium iodide (PI) (Annexin V-FITC Apoptosis Detection Kit, commercially available from Strong Biotech Corporation, Taiwan). The suspended cancer cells were stained at room temperature, in the dark for 15 min and analyzed by the BD FACSCanto™ flow cytometry (Becton Dickinson, USA). The amount of early apoptosis, late apoptosis, and necrosis was measured as the percentage of annexin-V positive/PI negative (Q4 in the FACS images), annexin-V positive/PI positive (Q2 in the FACS images), and annexin-V negative/PI positive cells (Q1 in the FACS images), respectively. Normal cells are in […] of the FACS images.

The test system of test [3] is CCL2 in RAW 264.7 cells/DU145 co-culture. Kind of test: CCL2 ELISA, RAW 264.7/DU145 co-culture. The following applies: DT-treated macrophage/DU145 co-culture medium; 5 or 10 μM DT, 24 hours; FIG. 15 (c). Here is the method:
As illustrated in Example 10, the production of CCL2 was inhibited by DT in both prostate cancer cells and macrophage, the effect of DT on monocyte/cancer cell co-culture and macrophage/cancer cell co-culture was examined using the invasion assay described in Example 9. • (a) THP1 monocytes, Raw264.7 macrophage, monocyte/prostate cancer co-culture and macrophage/prostate cancer co-culture were treated with a vehicle (DMSO), 5 or 10 μM DT for 24 hours, the cultured medium was collected and placed into the lower chamber of a transwell plate. • (b) Prostate cancer cells (PC3, DU145 and 22RV1) were placed in the cell invasion assay). The level of CCL2 in the invasion assay was measured by ELIZA method.
Background: ELISA stands for enzyme-linked immunosorbent assay.

The subject of test [4] is lung cancer cells (A549 and chemotherapy resistant/metastatic H460). The experiment in a line: Cell migration (wound-healing) assay, lung cancer cells. As to conditions: DT vs control vehicle, 24 h, dose dependent; FIG. 11. Here is the method: as §1
Cell Migration Assay: In vitro wound-healing assay was used to assess cell motility in two dimensions. Cancer cells were plated overnight to achieve a subconfluent cell layer in 24-well plates. A scratch was made on the cell layer with a micropipette tip, and cultures were washed twice with serum-free medium to remove floating cells. Cancer cells were incubated in a culture medium containing DT or the control vehicle. Wound healing was visualized by comparing photographs taken at the time of adding the DT/control vehicle and 24 h later. Three experiments were done in quadruplicates.

The test system is the same in test [5]. Kind of test: Cell invasion assay (transwell, Matrigel), lung cancer cells. As to conditions: 5 or 10 μM DT, 3 days, vs control vehicle; FIG. 11. As for the experimental part: as §1, §2
Test [6] has as its system prostate cancer cells (hormone therapy-resistant PC3, DU145 and LNCaP). The experiment in a line: Annexin V/PI flow cytometry apoptosis/necrosis, prostate cancer cells. The following applies: 10 or 20 μM DT, 24-48 hours, vs PBS and DMSO vehicle (CT); time dependent; FIG. 6. As for the experimental part: as §3, §4
A general note: In flow cytometry, cells or beads pass a laser one at a time.

In the case of `Cc1cccc2c3c(ccc12)C(=O)C1=C(OCC1C)C3=O` (stereo not drawn) [DT, dihydroisotanshinone I], the “prostate cancer cell motility (invasion assay)” value in test [1] was “reduced the motility and migration of prostate cancer cells”. For the same compound, in test [2], the “early apoptosis, late apoptosis and necrosis, lung cancer cells” value was “more early apoptosis, late apoptosis and necrosis; also recorded: induced lung cancer cell apoptosis/necrosis”. Besides, in test [3], the “concentration of CCL2” value is “significantly reduced”. Also, the “lung cancer cell migration into the wounded area” value in test [4] is on record as “reduced metastatic lung cancer cell migration; also recorded: reduced lung cancer cell migration into the wounded area”. Besides, in test [5], the “lung cancer cell motility (invasion assay)” value is on record as “reduced metastatic lung cancer cell motility; also recorded: reduced the motility of lung cancer cells”. Further, the “early apoptosis, late apoptosis and necrosis, prostate cancer cells” value in test [6] was “more early apoptosis, late apoptosis and necrosis; also recorded: induced prostate cancer cell apoptosis/necrosis”.
